Consider 32 compounds from patent US11091428B2 (HAPLOGEN GMBH, priority 2016, dated 2021).

Where two headings read alike, the source gives them in different places.

For test [1], the target named is T1, PLA2G16 (Homo sapiens, UniProt P53816).
T1 construct: Hexa-His (N); made in house; host or cells: E. coli BL21(DE3)
T1 sequence (P53816 1-162): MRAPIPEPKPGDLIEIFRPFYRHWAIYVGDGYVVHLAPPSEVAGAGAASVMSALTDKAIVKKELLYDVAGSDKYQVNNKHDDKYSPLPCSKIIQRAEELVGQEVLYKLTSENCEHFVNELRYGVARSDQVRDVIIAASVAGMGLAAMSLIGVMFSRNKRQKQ
Nature of the test: Enzyme activity assay for PLA2G16 (Red/Green BODIPY PC-A2 fluorescence). Format: biochemical. The settings on record: His-tagged PLA2G16, 4 min pre-incubation, 2 nM to 50 μM; read-out: IC50 values of the compounds determined in the enzyme activity assay for PLA2G16. In short, it runs like this:
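IC50 from non-linear fits of fluorescence rise (480/530 nm, 10 min) after adding Red/Green BODIPY PC-A2 mixed with DOPC/DOPG/cholesterol liposomes. Recombinant His-tagged human enzyme, bacterially expressed, was first exposed to inhibitor (2 nM–50 μM final) for 4 min in 50 mM Tris pH 8.5, 100 mM NaCl, 5 mM glutathione.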

For test [2], the system named is picornaviruses (CVB1, HRV-A2, HRV-A23, EV-68). Put plainly: Anti-picornavirus cytopathic effect (CPE) reduction assay on HeLa H1 cells. The settings on record: Enterovirus B, HeLa H1, 48 h. Format: cell-based. A digest of the protocol: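 Cytopathic-effect protection: EC50 from non-linear regression of cell viability (CellTiterBlue, 560/590 nm) 48 h post-infection, scaled between infected and mock-infected vehicle wells. Compound dilutions added to HeLa H1 cells 2 h before virus (MOI causing complete CPE within 2 days), in DMEM + 2% FBS; categories average the four viruses.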
A general note: Protection from cytopathic effect is a common read-out in antiviral testing.

The mark [3] stands for this setting: HeLa H1 cells, 48 h, category from averaging the EC50 values from four picornaviruses (CVB1, HRV-A2, HRV-A23, EV68), read-out: EC50 values of the compounds determined in the anti-picornavirus assay.

With `CC[C@H](C)NC(=O)C(=O)C(C)N(C=O)c1ccccc1OC` (stereo partly drawn) [FP 106, N-[(2S)-Butan-2-yl]-3-[N-(2-methoxyphenyl)formamido]-2-oxobutanamide], the IC50 – broadly, the midpoint of a concentration-inhibition curve – in test [1] is less than 1 µM. Further, the EC50 – broadly, the concentration needed to bring the measured effect to its halfway point – in test [2] (setting [3]) lay within 1 to 10 µM.
For `CNC(=O)C(=O)C(CC(C)C)N(C=O)Cc1ccccc1` (stereo not shown) [FP 195, 3-(N-Benzylformamido)-N,5-dimethyl-2-oxohexanamide] the same measures were less than 1 µM and 1 to 10 µM.
For `O=CN(CC1CCOCC1)C(C(=O)C(=O)NCC1CC1)C1CC1` (stereo not shown) [FP 66, 3-Cyclopropyl-N-(cyclopropylmethyl)-3-{N-[(oxan-4-yl)methyl]formamido}-2-oxopropanamide] the same measures were less than 1 µM and 1 to 10 µM.
As to `CC(OCC1CCOCC1)C(=O)C(=O)NCC1CC1` (stereo not shown) [FP 121, N-(Cyclopropylmethyl)-3-[(oxan-4-yl)methoxy]-2-oxobutanamide], the IC50 in test [1] was less than 1 µM. In test [2] (setting [3]), the EC50 fell in the range of 1 to 10 µM.
For `CC(C)OCCNC(=O)C(=O)[C@H]1CCC(=O)N1Cc1ccccc1` [FP 286, 2-[(2R)-1-Benzyl-5-oxopyrrolidin-2-yl]-2-oxo-N-[2-(propan-2-yloxy)ethyl]acetamide] the same measures were less than 1 µM and 1 to 10 µM.
Taken in the same sequence, the figures for `O=C(NC1CC1)C(=O)C1CCC(=O)N1CC1CCCC1` (stereo not shown) [FP 279, 2-[1-(Cyclopentylmethyl)-5-oxopyrrolidin-2-yl]-N-cyclopropyl-2-oxoacetamide] were less than 1 µM and 1 to 10 µM.
Taken in the same sequence, the figures for `Cc1ccc(S(=O)(=O)NC(C)C(=O)C(=O)NCC2CC2)cc1` (stereo not shown) [FP 189, N-(Cyclopropylmethyl)-3-(4-methylbenzenesulfonamido)-2-oxobutanamide] were less than 1 µM and 1 to 10 µM.
In the case of `CCC1CC(=O)N(Cc2ccccc2)C1C(=O)C(=O)NC1CC1` (stereo not shown) [FP 343, 2-(1-Benzyl-3-ethyl-5-oxopyrrolidin-2-yl)-N-cyclopropyl-2-oxoacetamide], in test [1], the IC50 was less than 1 µM. In addition, in test [2] (setting [3]), the EC50 was less than 1 µM.
With `O=C(NC1CC(F)(F)C1)C(=O)[C@H]1CCC(=O)N1Cc1ccccc1` [FP 268, 2-[(2R)-1-Benzyl-5-oxopyrrolidin-2-yl]-N-(3,3-difluorocyclobutyl)-2-oxoacetamide], the IC50 in test [1] is less than 1 µM. Also, the EC50 in test [2] (setting [3]) was less than 1 µM.
Turning to `O=C(NCCO)C(=O)C1CCC(=O)N1Cc1ccc(Cl)cc1` (stereo not shown) [FP 256, 2-{1-[(4-Chlorophenyl)methyl]-5-oxopyrrolidin-2-yl}-N-(2-hydroxyethyl)-2-oxoacetamide], in test [1], the IC50 is less than 1 µM. Also, the EC50 in test [2] (setting [3]) fell in the range of 1 to 10 µM.
For the compound `O=C(NCCN1CCCCC1=O)C(=O)[C@H]1CCC(=O)N1Cc1ccccc1` [FP 292, 2-[(2R)-1-Benzyl-5-oxopyrrolidin-2-yl]-2-oxo-N-[2-(2-oxopiperidin-1-yl)ethyl]acetamide], the IC50 in test [1] is less than 1 µM. In test [2] (setting [3]), the EC50 fell in the range of 1 to 10 µM.
Taken in the same sequence, the figures for `O=C(NCCC1CC1)C(=O)C1CCC(=O)N1Cc1ccccc1` (stereo not shown) [FP 307, 2-(1-Benzyl-5-oxopyrrolidin-2-yl)-N-(2-cyclopropylethyl)-2-oxoacetamide] were less than 1 µM and less than 1 µM.
Taken in the same sequence, the figures for `CC(C(=O)C(=O)NCC1CC1)N(C=O)C1CCCCC1` (stereo not shown) [FP 40, 3-(N-Cyclohexylformamido)-N-(cyclopropylmethyl)-2-oxobutanamide] were less than 1 µM and less than 1 µM.
For `COc1ccccc1N(C=O)C(C)C(=O)C(=O)NCC(C)(C)C` (stereo not shown) [FP 101, N-(2,2-Dimethylpropyl)-3-[N-(2-methoxyphenyl)formamido]-2-oxobutanamide] the same measures were less than 1 µM and 1 to 10 µM.
Consider `CC(=O)NCCOCCOCCNC(=O)C(=O)C1CCC(=O)N1Cc1ccc(Cl)cc1` (stereo not shown) [FP 327, 2-{1-[(4-Chlorophenyl)methyl]-5-oxopyrrolidin-2-yl}-N-{2-[2-(2-acetamidoethoxy)-ethoxy]ethyl}-2-oxoacetamide], for which the concentration for half-maximal inhibition (IC50) in test [1] fell in the range of 1 to 10 µM. For the same compound, the EC50 in test [2] (setting [3]) was more than 10 µM.
`O=C(NCC1CCCC1)C(=O)C1CCC(=O)N1CC1CC1` (stereo not shown) [FP 255, N-(Cyclopentylmethyl)-2-[1-(cyclopropylmethyl)-5-oxopyrrolidin-2-yl]-2-oxoacetamide]: in test [1], the IC50 was less than 1 µM. Besides, the EC50 in test [2] (setting [3]) is 1 to 10 µM.
In the case of `NC(=O)c1cccc(CN2C(=O)CCC2C(=O)C(=O)NCC2CCCCC2)c1` (stereo not shown) [FP 249, 3-[(2-{[(Cyclohexylmethyl)carbamoyl]carbonyl}-5-oxopyrrolidin-1-yl)methyl]benzamide], the IC50 in test [1] was less than 1 µM. In addition, in test [2] (read-out: EC50 values of the compounds determined in the anti-picornavirus assay, HeLa H1 cells, 48 h, category from averaging the EC50 values from four picornaviruses (CVB1, HRV-A2, HRV-A23, EV68)), the EC50 was less than 1 µM.
With `CCCNC(=O)C(=O)[C@H]1CCC(=O)N1Cc1ccccc1` [FP 288, 2-[(2R)-1-Benzyl-5-oxopyrrolidin-2-yl]-2-oxo-N-propylacetamide], in test [1], the IC50 is less than 1 µM. Also, the EC50 in test [2] (setting [3]) is less than 1 µM.
Consider `COc1ccccc1N(C=O)C(C)C(=O)C(=O)NC(C)C` (stereo not shown) [FP 28, 3-[N-(2-Methoxyphenyl)formamido]-2-oxo-N-(propan-2-yl)butanamide], for which, in test [1], the IC50 is less than 1 µM. The EC50 in test [2] (setting [3]) fell in the range of 1 to 10 µM.
For `CC(NC(=O)c1ccccc1)C(=O)C(=O)NCC1CCC1` (stereo not shown) [FP 181, N-(Cyclobutylmethyl)-2-oxo-3-(phenylformamido)butanamide] the same measures were less than 1 µM and 1 to 10 µM.
Taken in the same sequence, the figures for `Cc1ccc(C(=O)NC(C)C(=O)C(=O)NCC2CC2)cc1` (stereo not shown) [FP 159, N-(Cyclopropylmethyl)-3-[(4-methylphenyl)formamido]-2-oxobutanamide] were less than 1 µM and more than 10 µM.
For `C[C@@H]1C[C@H]1NC(=O)C(=O)[C@H]1CCC(=O)N1Cc1ccccc1` [FP 271, 2-[(2R)-1-Benzyl-5-oxopyrrolidin-2-yl]-N-[(1R,2R)-2-methylcyclopropyl]-2-oxoacetamide] the same measures were less than 1 µM and less than 1 µM.
As for `O=C(NC1CCN(C(=O)NC2CCCC2)CC1)C(=O)[C@H]1CCC(=O)N1Cc1ccccc1` [FP 325, 4-{2-[(2R)-1-Benzyl-5-oxopyrrolidin-2-yl]-2-oxoacetamido}-N-cyclopentylpiperidine-1-carboxamide], the IC50 in test [1] was less than 1 µM. Also, the EC50 in test [2] (setting [3]) is less than 1 µM.
Consider `CCCC(NC(=O)c1ccccc1)C(=O)C(=O)NC1CC1` (stereo not shown) [FP 184, N-Cyclopropyl-2-oxo-3-(phenylformamido)hexanamide], for which, in test [1], the IC50 is less than 1 µM. Besides, the concentration giving a half-maximal response (EC50) in test [2] (setting [3]) is more than 10 µM.
Taken in the same sequence, the figures for `COc1ccccc1N(C=O)C(C)C(=O)C(=O)N[C@H](C)C(C)C` (stereo partly drawn) [FP 107, 3-[N-(2-Methoxyphenyl)formamido]-N-[(2R)-3-methylbutan-2-yl]-2-oxobutanamide] were less than 1 µM and 1 to 10 µM.
For `O=C(NCc1cccc(=O)[nH]1)C(=O)C1CCC(=O)N1Cc1ccc(Cl)cc1` (stereo not shown) [FP 247, 2-{1-[(4-Chlorophenyl)methyl]-5-oxopyrrolidin-2-yl}-2-oxo-N-[(6-oxo-1,6-dihydropyridin-2-yl)methyl]acetamide] the same measures were less than 1 µM and 1 to 10 µM.
Taken in the same sequence, the figures for `CC(C(=O)C(=O)NCC1CC1)N(C)C(=O)C1CCCCC1` (stereo not shown) [FP 150, 3-(1-Cyclohexyl-N-methylformamido)-N-(cyclopropylmethyl)-2-oxobutanamide] were less than 1 µM and 1 to 10 µM.
Turning to `O=C(NCC1CCCCC1)C(=O)C1CCC(=O)N1Cc1ccc2c(c1)CNC2=O` (stereo not shown) [FP 244, N-(Cyclohexylmethyl)-2-oxo-2-{5-oxo-1-[(1-oxo-2,3-dihydro-1H-isoindol-5-yl)methyl]-pyrrolidin-2-yl}acetamide], in test [1], the IC50 is less than 1 µM. In test [2] (setting [3]), the EC50 fell in the range of 1 to 10 µM.
For the compound `O=C(NCCF)C(=O)[C@H]1CCC(=O)N1Cc1ccccc1` [FP 282, 2-[(2R)-1-Benzyl-5-oxopyrrolidin-2-yl]-N-(2-fluoroethyl)-2-oxoacetamide], in test [1], the IC50 was less than 1 µM. In addition, the EC50 in test [2] (setting [3]) is less than 1 µM.
For the compound `CC(C)CC(C(=O)C(=O)NCC1CC1)N(C=O)CC1CCOCC1` (stereo not shown) [FP 63, N-(Cyclopropylmethyl)-5-methyl-3-{N-[(oxan-4-yl)methyl]formamido}-2-oxohexanamide], the IC50 in test [1] is less than 1 µM. Besides, the EC50 in test [2] (setting [3]) was less than 1 µM.
As to `COC(=O)N(CC1CCOCC1)C(C)C(=O)C(=O)NCC(C)C` (stereo not shown) [FP 152, Methyl N-{1-[(2-methylpropyl)carbamoyl]-1-oxopropan-2-yl}-N-[(oxan-4-yl)methyl]carbamate], the IC50 in test [1] was in the range of 1 to 10 µM. The EC50 in test [2] (setting [3]) was more than 10 µM.
Turning to `O=C(NC1CN(C(=O)C2CCC2)C1)C(=O)[C@H]1CCC(=O)N1Cc1ccccc1` [FP 318, 2-[(2R)-1-Benzyl-5-oxopyrrolidin-2-yl]-N-(1-cyclobutanecarbonylazetidin-3-yl)-2-oxoacetamide], in test [1], the IC50 is less than 1 µM. Further, the EC50 in test [2] (setting [3]) lay in the range of 1 to 10 µM.
